Numbers after ± are expanded uncertainties.
What was measured:
[1] = Molar enthalpy of transition or fusion; details: Crystal; DSC
[2] = Crystal; DTA

Nc1ccc(Oc2ccc(N)cc2)cc1 [4,4'-diaminodiphenyl ether]
Molar enthalpy of transition or fusion [1]: 9.05 ± 0.406 kcal/mol | Normal melting temperature [2]: 189.52 ± 0.39 °C

From the NIST ThermoML archive (doi:10.1016/j.fluid.2013.07.010)
